Data as given in patent US8222281B2, “Carboxylic acid compound” (Daiichi Sankyo Company, Limited, priority 2008, dated 2012).

Tested on: genetically obese impaired glucose tolerance rats (Crlj:ZUC-Lepr^fa/Lepr^fa rats)
Assay: Oral glucose tolerance test
Assay type: in vivo
Conditions: Rattus norvegicus, 0.5 h; dose 0.3 mg/kg oral; glucose 2 g/kg oral 30 minutes after compound; blood glucose 30 minutes after glucose loading; vs control group; read-out: Blood glucose lowering index (%)
Procedure: Oral Glucose Tolerance Test
Commercially available genetically obese impaired glucose tolerance rats (Crlj:ZUC-Lepr^fa/Lepr^fa rats, male, 11 weeks of age at the time of use, purchased from Charles River Laboratories Japan, Inc.)
(2) Experimental Method and Results
The rats were preliminarily reared for 2 weeks by feeding them laboratory chow (FR-2, Funabashi Farm Co., Ltd.) ad libitum. Then, the rats were fasted for 15 to 18 hours and used as test animals. A suspension was prepared such that the concentration of a test compound fell within a range from 0.075 to 0.25 mg/mL using a 0.5% solution of methyl cellulose (Wako Pure Chemical Industries, Ltd.). The test compound was orally administered by gavage to the rats (6 rats in each group) at a dose of 0.3 to 1 mg/kg. To the rats in the control group, a 0.5% solution of methyl cellulose was orally administered at a dose of 4 mL/kg. The oral glucose loading was performed such that a glucose solution (Otsuka Glucose Injection 50%, Otsuka Pharmaceutical Co., Ltd.) was orally administered at a dose of 2 g/kg after 30 minutes from administration of the test compound.
The blood was collected from the tail vein of each rat, and the blood glucose level was measured after 30 minutes from the oral glucose loading using a fully automatic blood glucose meter (Glucoroder GXT, A& T Corporation), and the blood glucose lowering index (%) was calculated from the following equation.
Blood glucose lowering index (%)=[1−(blood glucose level in test compound administration group)/(blood glucose level in control group)]×100

Compared with CCO[C@@H](CC(=O)O)c1ccc(O[C@@H]2CCc3c2ccc(F)c3C(F)(F)F)cc1 [Example 56, (3S)-3-Ethoxy-3-(4-{[(1R)-5-fluoro-4-(trifluoromethyl)-2,3-dihydro-1H-inden-1-yl]oxy}phenyl)-propionic acid], CCO[C@@H](CC(=O)O)c1ccc(O[C@@H]2CCc3c2cc(F)cc3C(F)(F)F)cc1 [Example 61, (3S)-3-Ethoxy-3-(4-{[(1R)-6-fluoro-4-(trifluoromethyl)-2,3-dihydro-1H-inden-1-yl]oxy}phenyl)-propionic acid] is lower in inhibition in vivo at 0.3 mg/kg: 40% for the first, 34% for the second.

First: CCO[C@@H](CC(=O)O)c1ccc(O[C@@H]2CCc3c(C(F)F)cccc32)cc1 [Example 59, (3S)-3-(4-{[(1R)-4-(Difluoromethyl)-2,3-dihydro-1H-inden-1-yl]oxy}phenyl)-3-ethoxypropionic acid]
Second: CCO[C@@H](CC(=O)O)c1ccc(O[C@@H]2CCc3c(C4CC4)cccc32)cc1 [Example 64, (3S)-3-(4-{[(1R)-4-Cyclopropyl-2,3-dihydro-1H-inden-1-yl]oxy}phenyl)-3-ethoxypropionic acid]
The inhibition in vivo at 0.3 mg/kg of the first is higher: 32% for the first, 30% for the second.

First: CCO[C@@H](CC(=O)O)c1ccc(O[C@@H]2CCc3c(C)cc(C)cc32)cc1 [Example 62, (3S)-3-(4-{[(1R)-4,6-Dimethyl-2,3-dihydro-1H-inden-1-yl]oxy}phenyl)-3-ethoxypropionic acid]
Second: CCO[C@@H](CC(=O)O)c1ccc(O[C@@H]2COc3c(OC(F)(F)F)cccc32)cc1 [Example 55, (3S)-3-Ethoxy-3-(4-{[(3S)-7-(trifluoromethoxy)-2,3-dihydro-1-benzofuran-3-yl]oxy}phenyl)propionic acid]
The inhibition in vivo at 0.3 mg/kg of the first is lower: 33% for the first, 38% for the second.

Same assay, conditions: Rattus norvegicus, 0.5 h; dose 1 mg/kg oral; glucose 2 g/kg oral 30 minutes after compound; blood glucose 30 minutes after glucose loading; vs control group; read-out: Blood glucose lowering index (%)

Compared with CCOC(CC(=O)O)c1ccc(OCc2ccccc2C)cc1 (centres unmarked) [Example 20, 3-Ethoxy-3-{4-[(2-methylbenzyl)oxy]phenyl}propionic acid], CCOC(CC(=O)O)c1ccc(OCc2ccc(Cl)c(Cl)c2)cc1 (centres unmarked) [Example 1, 3-{4-[(3,4-Dichlorobenzyl)oxy]phenyl}-3-ethoxypropionic acid] is higher in inhibition in vivo at 1 mg/kg: 15% for the first, 25% for the second.

Going from CCO[C@@H](CC(=O)O)c1ccc(O[C@@H]2CCc3c(C)cccc32)cc1 [Example 58, (3S)-3-Ethoxy-3-(4-{[(1R)-4-methyl-2,3-dihydro-1H-inden-1-yl]oxy}phenyl)propionic acid] to CCO[C@@H](CC(=O)O)c1ccc(O[C@@H]2CCc3c(Cl)cccc32)cc1 [Example 50, (3S)-3-(4-{[(1R)-4-Chloro-2,3-dihydro-1H-inden-1-yl]oxy}phenyl)-3-ethoxypropionic acid], the inhibition in vivo at 1 mg/kg rises from 35% to 38%.

First: CCOC(CC(=O)O)c1ccc(Oc2cc(Cl)ccc2Cl)cc1 (centres unmarked) [Example 25, 3-[4-(2,5-Dichlorophenoxy)phenyl]-3-ethoxypropionic acid]
Second: CCOC(CC(=O)O)c1ccc(Oc2cc(Cl)cc(Cl)c2)cc1 (centres unmarked) [Example 24, 3-[4-(3,5-Dichlorophenoxy)phenyl]-3-ethoxypropionic acid]
The inhibition in vivo at 1 mg/kg of the first is higher: 39% for the first, 37% for the second.

Going from CCO[C@@H](CC(=O)O)c1ccc(OCc2ccc(C(F)(F)F)cc2)cc1 [Example 49, (3S)-3-Ethoxy-3-(4-{[4-(trifluoromethyl)benzyl]oxy}phenyl)propionic acid] to CCO[C@@H](CC(=O)O)c1ccc(OCc2ccc(C(F)(F)F)cc2)nc1 [Example 18, (3S)-3-Ethoxy-3-(6-{[4-(trifluoromethyl)benzyl]oxy}pyridin-3-yl)propionic acid], the inhibition in vivo at 1 mg/kg falls from 37% to 35%.

Going from CCO[C@@H](CC(=O)O)c1ccc(O[C@H]2CCc3c(Cl)cccc32)cc1 [Example 52, (3S)-3-(4-{[(1S)-4-Chloro-2,3-dihydro-1H-inden-1-yl]oxy}phenyl)-3-ethoxypropionic acid] to CCO[C@@H](CC(=O)O)c1ccc(O[C@@H]2CCc3c(CC)cccc32)cc1 [Example 57, (3S)-3-Ethoxy-3-(4-{[(1R)-4-ethyl-2,3-dihydro-1H-inden-1-yl]oxy}phenyl)propionic acid], the inhibition in vivo at 1 mg/kg rises from 15% to 50%.

First: CCOC(CC(=O)O)c1ccc(Oc2ccc(C#N)c3ccccc23)cc1 (centres unmarked) [Example 23, 3-{4-[(4-Cyano-1-naphthyl)oxy]phenyl}-3-ethoxypropionic acid]
Second: CCO[C@@H](CC(=O)O)c1ccc(OCc2ccc(Cl)c(Cl)c2)cc1 [Example 16, (3S)-3-{4-[(3,4-Dichlorobenzyl)oxy]phenyl}-3-ethoxypropionic acid]
The inhibition in vivo at 1 mg/kg of the first is lower: 16% for the first, 39% for the second.

Compared with CCOC(CC(=O)O)c1ccc(OCc2ccc(C(F)(F)F)cc2)nc1 (centres unmarked) [Example 17, 3-Ethoxy-3-(6-{[4-(trifluoromethyl)benzyl]oxy}pyridin-3-yl)propionic acid], CCO[C@@H](CC(=O)O)c1ccc(OC2CCc3c2cccc3C(F)(F)F)cc1 (stereo partly drawn) [Example 53, (3S)-3-Ethoxy-3-(4-{[4-(trifluoromethyl)-2,3-dihydro-1H-inden-1-yl]oxy}phenyl)propionic acid] is higher in inhibition in vivo at 1 mg/kg: 38% for the first, 41% for the second.

Going from CCO[C@@H](CC(=O)O)c1ccc(O[C@@H]2CCc3c(OC(F)(F)F)cccc32)cc1 [Example 63, (3S)-3-Ethoxy-3-(4-{[(1R)-4-(trifluoromethoxy)-2,3-dihydro-1H-inden-1-yl]oxy}phenyl)propionic acid] to CCO[C@@H](CC(=O)O)c1ccc(O[C@@H]2CCc3c2cccc3C(F)(F)F)cc1 [Example 51, (3S)-3-Ethoxy-3-(4-{[(1R)-4-(trifluoromethyl)-2,3-dihydro-1H-inden-1-yl]oxy}phenyl)propionic acid], the inhibition in vivo at 1 mg/kg falls from 45% to 42%.

With CCO[C@@H](CC(=O)O)c1ccc(O[C@@H]2COc3c2cccc3C(F)(F)F)cc1 [Example 60, (3S)-3-Ethoxy-3-(4-{[(3S)-7-(trifluoromethyl)-2,3-dihydro-1-benzofuran-3-yl]oxy}phenyl)propionic acid] the inhibition in vivo at 1 mg/kg was 48%.
